Test results taken from US20050107289A1, “Anti-microbial peptides and compositions” (priority 2001, published 2005).
Like-named read-outs stand apart in the source and are kept apart here. Non-standard residues stand in square brackets, D forms with d. Residues, ends and D or L forms follow the SMILES beside them.

How the values were obtained:
[1] = test system: Bacillus cereus ATCC 11778; format: cell-based
Procedure: (§1) The antimicrobial activity of the peptides was determined using a broth dilution assay essentially as descried in the guidelines of the National Committee for […] (NCCLS) [National Committee for Clinical Laboratory Standards. Methods for dilution antimicrobial susceptibility tests for bacteria that grow aerobically. Fourth edition. Approved Standard (1997). Document M7-A4. […] The microdilution method has the advantages of requiring less amount of peptide for each assay and the possibility of multiple simultaneous inoculations and was used in most studies. Several of the strains of bacteria tested are further described in Table 3.
(§2) Preparation of peptide solutions. Stock peptide solutions were prepared in 5% DMSO in aq. sucrose (9%). Determination of peptide concentrations was done by quantitative HPLC analysis using known concentrations of internal standards and/or by measuring UV absorption of tryptophane-containing peptide solutions in H2O (λ=280 εTrp: 5690). Serial 2-fold dilutions were made in the above DMSO/aq. sucrose (9%) mixture with concentrations ranging approximately 400-2 μg/ml and aliquots were dispensed in test tubes (100 μl) for the macrodilution test or in microtiter plates (20 μl) for the microdilution assays.
(§3) Inoculum preparation. Overnight cultures of different microorganisms grown in suitable media were diluted 4000 times to an approximate inoculum size of 2.5×10^5 cfu/ml.
(§4) Macrodilution method. Macrodilution methods were performed using procedures similar to those described in the National Committee for Clinical Laboratory Standards. Methods for dilution antimicrobial susceptibility tests for bacteria that grow aerobically. Fourth edition. Approved Standard (1997). Document M7-A4. (NCCLS,Villanova, Pa., 1997). Two ml aliquots of the above inoculum were dispensed to test tubes containing different peptide solutions.
(§5) Microdilution method. Microdilution methods were performed using procedures similar to those described in the National Committee for Clinical Laboratory Standards. Methods for dilution antimicrobial susceptibility tests for bacteria that grow aerobically. Fourth edition. Approved Standard (1997). Document M7-A4.

[2] = test system: Streptococcus pneumoniae (ATCC 6301); format: cell-based
Procedure: as §1, §2, §3, §4, §5

[3] = test system: E. coli JM109(DE3); format: cell-based, Escherichia coli; settings: JM109
Procedure: as §1, §2, §3, §4, §5

[4] = test system: murine red blood cells; test: Red blood cell hemolysis; format: cell-based, mouse; settings: for Hemolysis HD50: red cells of murine
Procedure, shortened: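 Washed murine erythrocytes at 5% in saline with 10% FBS were exposed to serial peptide dilutions for 30 min at 37° C. Supernatant absorbance at 560 nm was read, with saline as 0% and 1% Triton X-100 as 100% hemolysis.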

[5] = test system: S. aureus (MRSA) ATCC 33591; format: cell-based, Staphylococcus aureus; settings: for MRSA MIC / S. aureus (MRSA) MIC: ATCC 33591; for MRSA (in vitro activity): Table 9, media a: anti-microbial media-3 (AM-3)
Procedure, shortened: (§6)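 Broth microdilution (macrodilution in some cases) per NCCLS M7-A4; peptides 2-fold serially diluted in 5% DMSO/9% sucrose, ~400-2 μg/ml before dilution into broth; inoculum ~2.5×10^5 cfu/ml from overnight culture diluted 4000×.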

[6] = test system: vancomycin-resistant Enterococus faecalis (VRE)(ATCC 51575); format: cell-based, Enterococcus faecalis; set-up: key to VRE (in vitro activity): peptide concentration in μg/ml (broth dilution assay); settings: for VRE MIC: ATCC 51575; for VRE (in vitro activity): Table 9, media a: AM-3
Procedure, shortened: as §6

SMILES | B. cerius MIC [1] | S. pneum. MIC [2] | E. coli MIC [3] | Hemolysis HD50 [4] | MRSA MIC ([5]; Table 10) | VRE MIC [6] | RBC Hemolysis (HD50) [4] | MRSA MIC [5] | S. aureus (MRSA) MIC [5] | MRSA (in vitro activity) [5] | VRE (in vitro activity) [6]
CC(C)C[C@H]1NC(=O)[C@H](CCCCN)NC(=O)[C@@H](CC(C)C)NC(=O)[C@H](Cc2c[nH]c3ccccc23)NC(=O)[C@@H](CC(C)C)NC(=O)[C@H](Cc2c[nH]c3ccccc23)NC(=O)[C@@H](CC(C)C)NC(=O)[C@H](Cc2c[nH]c3ccccc23)NC1=O [SEQ ID NO:3, cyclo[-Lys-D-Leu-(Trp-D-Leu)3]] (cyclo(K[dL]W[dL]W[dL]W[dL])) | 50 µg/mL | 50 µg/mL | 100 µg/mL | 20 µg/mL | ppt | 80 µg/mL | – | – | – | – | –
CC(C)C[C@H]1NC(=O)[C@H](Cc2c[nH]c3ccccc23)NC(=O)[C@@H](CO)NC(=O)[C@H](CCCCN)NC(=O)[C@@H](CO)NC(=O)[C@H](Cc2c[nH]c3ccccc23)NC(=O)[C@@H](CC(C)C)NC(=O)[C@H](Cc2c[nH]c3ccccc23)NC1=O [SEQ ID NO:5, cyclo-(D-Ser-Lys-D-Ser-Trp-D-Leu-Trp-D-Leu-Trp)] (cyclo(K[dS]W[dL]W[dL]W[dS])) | > 30 µg/mL | 30 µg/mL | 100 µg/mL | – | – | 20 µg/mL | 30 | 20 µg/mL | 10 µg/mL | 20 | 20
CC(C)C[C@H]1NC(=O)[C@H](Cc2c[nH]c3ccccc23)NC(=O)[C@@H](CO)NC(=O)[C@H](Cc2c[nH]cn2)NC(=O)[C@@H]([C@H](C)O)NC(=O)[C@H](Cc2c[nH]c3ccccc23)NC(=O)[C@@H](CC(C)C)NC(=O)[C@H](Cc2c[nH]c3ccccc23)NC1=O [SEQ ID NO:6, cyclo-(D-Thr-His-D-Ser-Trp-D-Leu-Trp-D-Leu-Trp)] (cyclo(H[dS]W[dL]W[dL]W[dT])) | > 280 µg/mL | 100 µg/mL | 100 µg/mL | – | – | 100 µg/mL | 100 | 100 µg/mL | 100 µg/mL | 100 | 100
CC(C)C[C@H]1NC(=O)[C@H](Cc2c[nH]c3ccccc23)NC(=O)[C@@H](CC(C)C)NC(=O)[C@H](Cc2c[nH]c3ccccc23)NC(=O)[C@@H](CC(=O)O)NC(=O)CNC(=O)[C@@H](CCCNC(=N)N)NC(=O)[C@H](Cc2c[nH]c3ccccc23)NC1=O [SEQ ID NO:7, RGDWLWLW] (cyclo([dR]G[dD]W[dL]W[dL]W)) | > 280 µg/mL | 70 µg/mL | 100 µg/mL | – | – | 100 µg/mL | 100 | 100 µg/mL | 100 µg/mL | 100 | 100
CC(C)C[C@H]1NC(=O)[C@H](Cc2c[nH]c3ccccc23)NC(=O)[C@@H](CCCNC(=N)N)NC(=O)[C@H](CCC(N)=O)NC(=O)[C@@H](CCCNC(=N)N)NC(=O)[C@H](Cc2c[nH]c3ccccc23)NC(=O)[C@@H](CC(C)C)NC(=O)[C@H](Cc2c[nH]c3ccccc23)NC1=O [SEQ ID NO:10, RQRWLWLW] (cyclo([dR]Q[dR]W[dL]W[dL]W)) | < 1 µg/mL | 4 µg/mL | – | – | – | 10 µg/mL | 25 | 10 µg/mL | 18 µg/mL | 10 | 10
CC(C)C[C@H]1NC(=O)[C@H](Cc2c[nH]c3ccccc23)NC(=O)[C@@H](CCCCN)NC(=O)[C@H](CCC(N)=O)NC(=O)[C@@H](CCCCN)NC(=O)[C@H](Cc2c[nH]c3ccccc23)NC(=O)[C@@H](CC(C)C)NC(=O)[C@H](Cc2c[nH]c3ccccc23)NC1=O [SEQ ID NO:11, cyclo-[Gln-D-Lys-(Trp-D-Leu)2-Trp-D-Lys-]] (cyclo([dK]Q[dK]W[dL]W[dL]W)) | 7 µg/mL | 8 µg/mL | 100 µg/mL | – | – | 20 µg/mL | – | 20 µg/mL | 45 µg/mL | – | –
CC(C)C[C@H]1NC(=O)[C@H](Cc2c[nH]c3ccccc23)NC(=O)[C@@H](Cc2c[nH]cn2)NC(=O)[C@H](CCCCN)NC(=O)[C@@H](CO)NC(=O)[C@H](Cc2c[nH]c3ccccc23)NC(=O)[C@@H](CC(C)C)NC(=O)[C@H](Cc2c[nH]c3ccccc23)NC1=O [SEQ ID NO:14, cyclo-(D-Ser-Lys-D-His-Trp-D-Leu-Trp-D-Leu-Trp)] (cyclo(K[dH]W[dL]W[dL]W[dS])) | 6 µg/mL | – | 100 µg/mL | – | – | 30 µg/mL | 20 | 15 µg/mL | 15 µg/mL | 15 | 30
CC(C)C[C@H]1NC(=O)[C@H](Cc2c[nH]c3ccccc23)NC(=O)[C@@H](Cc2c[nH]cn2)NC(=O)[C@H](Cc2c[nH]cn2)NC(=O)[C@@H](CO)NC(=O)[C@H](Cc2c[nH]c3ccccc23)NC(=O)[C@@H](CC(C)C)NC(=O)[C@H](Cc2c[nH]c3ccccc23)NC1=O [SEQ ID NO:15, SHHWLWLW] (cyclo([dS]H[dH]W[dL]W[dL]W)) | 11 µg/mL | 40 µg/mL | 100 µg/mL | – | – | 50 µg/mL | 20 | 30 µg/mL | 20 µg/mL | 30 | 50
CC(C)C[C@H]1NC(=O)[C@H](Cc2c[nH]c3ccccc23)NC(=O)[C@@H](Cc2c[nH]cn2)NC(=O)[C@H](CCCCN)NC(=O)[C@@H](CCC(=O)O)NC(=O)[C@H](Cc2c[nH]c3ccccc23)NC(=O)[C@@H](CC(C)C)NC(=O)[C@H](Cc2c[nH]c3ccccc23)NC1=O [SEQ ID NO:16, cyclo-(D-Glu-Lys-D-His-Trp-D-Leu-Trp-D-Leu-Trp)] (cyclo(K[dH]W[dL]W[dL]W[dE])) | 85 µg/mL | 50 µg/mL | 100 µg/mL | – | – | 100 µg/mL | >100 | 100 µg/mL | 100 µg/mL | 100 | 100
CC(C)C[C@H]1NC(=O)[C@H](Cc2c[nH]c3ccccc23)NC(=O)[C@@H](CCCNC(=N)N)NC(=O)[C@H](CCCNC(=N)N)NC(=O)[C@@H](CCCNC(=N)N)NC(=O)[C@H](Cc2c[nH]c3ccccc23)NC(=O)[C@@H](CC(C)C)NC(=O)[C@H](Cc2c[nH]c3ccccc23)NC1=O [SEQ ID NO:20, RRRWLWLW] (cyclo([dR]R[dR]W[dL]W[dL]W)) | – | – | 50 µg/mL | 35 µg/mL | – | – | – | – | 10 µg/mL | – | –
CC(C)C[C@@H]1NC(=O)[C@@H](Cc2c[nH]c3ccccc23)NC(=O)[C@H](CCCNC(=N)N)NC(=O)[C@@H](CCCNC(=N)N)NC(=O)[C@H](CCCNC(=N)N)NC(=O)[C@@H](Cc2c[nH]c3ccccc23)NC(=O)[C@H](CC(C)C)NC(=O)[C@@H](Cc2c[nH]c3ccccc23)NC1=O [SEQ ID NO:133, [RRRWLWLW]] (cyclo(R[dR]R[dW]L[dW]L[dW])) | 10 µg/mL | 5 µg/mL | 35 µg/mL | 35 µg/mL | – | – | – | 10 µg/mL | – | – | –
CC(C)C[C@H]1NC(=O)[C@H](CCC(=O)O)NC(=O)[C@@H](CCCCN)NC(=O)[C@H](Cc2c[nH]c3ccccc23)NC(=O)[C@@H](CC(C)C)NC(=O)[C@H](Cc2c[nH]c3ccccc23)NC(=O)[C@@H](CC(C)C)NC(=O)[C@H](Cc2c[nH]c3ccccc23)NC1=O [SEQ ID NO:143, [KELWLWLW]] (cyclo([dK]E[dL]W[dL]W[dL]W)) | > 140 µg/mL | 100 µg/mL | – | – | – | 100 µg/mL | – | 100 µg/mL | – | – | –
CC(C)C[C@@H](NC(=O)[C@H](Cc1c[nH]c2ccccc12)NC(=O)[C@@H](CC(C)C)NC(=O)[C@H](Cc1c[nH]c2ccccc12)NC(=O)[C@@H](CCCCN)NC(=O)[C@H](CCCCN)NC(=O)[C@@H](CCCCN)NC(=O)[C@@H](N)Cc1c[nH]c2ccccc12)C(=O)O [SEQ ID NO:144, H-WKKKWLWL-OH] (H-W[dK]K[dK]W[dL]W[dL]-OH) | 340 µg/mL | 100 µg/mL | – | – | – | 100 µg/mL | – | 60 µg/mL | – | – | –
